Experimental data taken from patent publication US9000162B2, “5,8-difluoro-4-(2-(4-(heteroaryloxy)-phenyl)ethylamino)quinazolines and their use as agrochemicals” (Dow AgroSciences LLC, priority 2008, dated 2015).
≈ marks a conversion by molar mass, not a printed value.

What was measured:
[1] = tested on: Septoria tritici (SEPTTR); test: Septoria blotch of wheat foliar protectant test; assay type: in vivo; details: Zymoseptoria tritici, read-out: Activity against fungal diseases SEPTTR; for pest or weed control at 200 ppm: 200 ppm foliar, inoculated one day after treatment; for pest or weed control at 25 ppm: foliar, Tested at 25 ppm (footnote b)
Method in brief: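 Wheat seedlings (3-10 per pot) were sprayed to wet with formulated compound and inoculated next day with Septoria tritici spores. Plants then had 1 day in a dark dew chamber and 3 days in a lighted one before greenhouse incubation. Severity versus untreated inoculated plants gave percent control, scored *** 80-100%, ** 50-79%, * 0-49%.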

[2] = tested on: Pseudoperonospora cubensis (PSPECU); test: Cucumber downy mildew foliar protectant test; assay type: in vivo; details: 200 ppm foliar, inoculated one day after treatment, read-out: Activity against fungal diseases PSPECU
Method in brief: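 Cucumber seedlings, first true leaf 20-80% expanded, were sprayed to wetness with formulated compound and inoculated next day with aqueous sporangia suspension. Severity was converted to percent control versus untreated inoculated plants: ***=80-100%, **=50-79%, *=0-49%.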

[3] = tested on: Puccinia recondita tritici (PUCCRT); test: Leaf rust of wheat foliar protectant test; assay type: in vivo; details: 200 ppm foliar, inoculated one day after treatment, read-out: Activity against fungal diseases PUCCRT
Method in brief: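 Wheat seedlings (3–8 per pot) were sprayed to wet with formulated compound and inoculated the next day with an aqueous Puccinia recondita tritici spore suspension. Severity was converted to % control versus untreated inoculated plants and rated *** 80–100%, ** 50–79%, * 0–49%.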

[4] = Mouse oral exposure (gavage), 14 days; design: species or system mice; details: female, CD-1/Swiss derived albino, in vivo, 5% w/v in 0.5% carboxymethylcellulose, monitored 14 days
Protocol: The effect on mice of oral exposure was determined for compounds differing only in the number of fluorine substituents on the quinazoline ring, as shown in Table 5. Three CD-1/Swiss derived albino female mice were administered compounds by gavage as a 5% w/v mixture in 0.5% carboxymethylcellulose solution. The animals were monitored for 14 days.

[5] = tested on: Colorado Potato Beetle (Leptinotarsa decemlineata, LPTNDE); test: Colorado Potato Beetle larvae on sprayed tomato leaves; assay type: in vivo; details: foliar, 72 h, L2 larvae on sprayed tomato foliage, mortality after three days
Protocol: Formulated test compounds were diluted and sprayed onto leaves of tomato plants. When dry, plant foliage was removed from the plant and placed in 8-well agar trays. Five L2 Colorado potato beetle larvae were placed in each well, and the trays were sealed and incubated at 26° C. Mortality was evaluated after three days.

[6] = tested on: Magnaporthe grisea = Pyricularia oryzae (PYRIOR); test: whole plant or invertebrate; assay type: in vivo; details: foliar, read-out: Activity against fungal diseases PYRIOR
Caenorhabditis elegans = details: 10 micrograms per milliliter agar, 24 h at 20° C.
Protocol: The activity of the compounds against Caenorhabditis elegans was determined by dissolving compounds in DMSO, then applying them to petri dishes containing Nematode Growth Medium agar to a final concentration of 10 μg compound per milliliter agar. Escherichia coli bacteria were grown on the plates to provide a food source for the larvae of Caenorhabditis elegans. The bacteria were heat-killed at 65° C. before compounds were added to the plates.
The plates with compound and heat-killed bacteria were infested with 10 microliter drops containing eggs from wild-type Caenorhabditis elegans worms. Adult worms were dissolved in KOH and bleach and washed in Ringers solution to generate the egg suspension. Each compound was screened with approximately 400 eggs, divided between two petri dishes. Egg hatching was evaluated after 24 h at 20° C. Mortality was averaged over the two plates.

[7] = tested on: Puccinia triticina (PUCCRT); test: Synergy with pyraclostrobin or epoxiconazole against wheat leaf rust; details: alone
Protocol: (§1) The compound was evaluated in mixtures with pyraclostrobin, or epoxiconazole for protectant and curative activity against wheat leaf rust (Puccinia triticina, PUCCRT), and Septoria blotch (Septoria tritici, SEPTTR).
(§2) The compound was formulated at six rates (8.1, 2.7, 0.9, 0.3, 0.1, 0.03 ppm) and applied to wheat plants alone and in all combinations of it with pyraclostrobin or epoxiconazole using the methods described in section “Fungicidal Activity” above. Plants were inoculated three days before treatment (3DC) or one day after treatment (1DP), incubated in a greenhouse until disease was expressed, and visually rated (reported as % DC Obs) as described above. The expected control was calculated using the Colby equation (Colby, S. R. Calculation of the synergistic and antagonistic response of herbicide combinations. Weeds 1967 15, 20-22.).
(§3) The following equation was used to calculate the expected activity of mixtures containing two active ingredients, A and B: Expected=A+B−(A×B/100)
(§4) A=observed efficacy of active ingredient A at the same concentration as used in the mixture
(§5) B=observed efficacy of active ingredient B at the same concentration as used in the mixture

[8] = tested on: Septoria tritici (SEPTTR); test: Synergy with pyraclostrobin or epoxiconazole against Septoria blotch; details: alone
Protocol: as §1, §2, §3, §4, §5

Molecule	pest or weed control at 200 ppm [1]	pest or weed control at 200 ppm [2]	pest or weed control at 200 ppm [3]	pest or weed control at 200 ppm [6]	further results
Fc1ccc(F)c2c(NCCc3ccc(Oc4cc(C(F)(F)F)ccn4)cc3)ncnc12 [Compound 6]	80 to 100%	80 to 100%	80 to 100%	80 to 100%	LD50 at 14 days [4]: 100 to 500 mg/kg; LC90 [5]: 12.5 to 50 mg/L (≈ 28 to 112 µM)
COc1ccc(CCNc2ncnc3c(F)ccc(F)c23)c(C)c1 [Compound 42]	80 to 100%	80 to 100%	80 to 100%	80 to 100%	Percent mortality (Caenorhabditis elegans): 6%
Fc1ccc(F)c2c(NCCc3ccc(Oc4nccc(C(F)(F)F)n4)cc3)ncnc12 [Compound 3]	80 to 100%	80 to 100%	80 to 100%	50 to 79%	Percent mortality (Caenorhabditis elegans): 100%
N#Cc1cc(Cl)ncc1Oc1ccc(CCNc2ncnc3c(F)ccc(F)c23)cc1 [Compound 125]	80 to 100%	80 to 100%	80 to 100%	80 to 100%	Percent mortality (Caenorhabditis elegans): 0%
Fc1cccc2c(NCCc3ccc(Oc4cc(C(F)(F)F)ccn4)cc3)ncnc12 [drawing 199, reference compound]	–	–	–	–	LC90 [5]: 3.1 to 12.5 mg/L (≈ 7.24 to 29.2 µM)
Fc1cc(F)c2ncnc(NCCc3ccc(Oc4cnccc4C(F)(F)F)c(Cl)c3)c2c1F [Compound 93]	80 to 100%	–	80 to 100%	80 to 100%	Percent mortality (Caenorhabditis elegans): 100%
Fc1ccc(F)c2c(NCCc3ccc(Oc4ccnc(C(F)(F)F)c4)cc3)ncnc12 [Example 11, (5,8-Difluoroquinazolin-4-yl)-{2-[4-(2-trifluoromethylpyridin-4-yloxy)-phenyl]-ethyl}-amine]	–	–	–	–	melting point: 95 to 96 °C
Fc1ccc(F)c2c(NCCc3ccc(Oc4ccc(C(F)(F)F)cn4)cc3)ncnc12 [Compound 1]	80 to 100%	80 to 100%	80 to 100%	80 to 100%	LC90 [5]: 0.49 mg/L (≈ 1.1 µM)
COc1cc(CCNc2ncnc3c(F)ccc(F)c23)ccc1Oc1cc(C(F)(F)F)ccn1 [Compound 15]	80 to 100%	80 to 100%	80 to 100%	80 to 100%	% DC Obs ([7]; 1DP PUCCRT, 0.3 ppm): 33%; % DC Obs ([7]; 3DC PUCCRT, 0.3 ppm): 6%; % DC Obs ([7]; 3DC PUCCRT, 0.9 ppm): 52%; % DC Obs ([8]; 1DP SEPTTR, 2.7 ppm): 31%; % DC Obs ([8]; 3DC SEPTTR, 0.9 ppm): 22%
Fc1cc(Oc2cc(C(F)(F)F)ccn2)ccc1CCNc1ncnc2c(F)ccc(F)c12 [Compound 76]	80 to 100%	80 to 100%	80 to 100%	80 to 100%	Percent mortality (Caenorhabditis elegans): 100%
Fc1cc(F)c2ncnc(NCCc3ccc(Oc4ccc(C(F)(F)F)cn4)cc3)c2c1F [Compound 74]	80 to 100%	80 to 100%	80 to 100%	80 to 100%	LC90 [5]: 1 mg/L (≈ 2.15 µM)
Fc1cccc2c(NCCc3ccc(Oc4ccc(C(F)(F)F)cn4)cc3)ncnc12 [reference compound]	–	–	–	–	LC90 [5]: 0.12 mg/L (≈ 0.28 µM)
N#Cc1ccc(Oc2ccc(CCNc3ncnc4c(F)cccc34)cc2)nc1 [reference compound]	–	–	–	–	LC90 [5]: < 3.1 mg/L
Fc1cccc2c(NCCc3ccc(Oc4cc(C(F)(F)F)ccn4)cc3)ncnc12 [drawing 198, reference compound]	–	–	–	–	LD50 at 14 days [4]: < 100 mg/kg
ivermectin [reference compound]	–	–	–	–	Percent mortality (Caenorhabditis elegans): 95%
N#Cc1ccc(Oc2ccc(CCNc3ncnc4c(F)ccc(F)c34)cc2)nc1 [Compound 124]	–	80 to 100%	80 to 100%	80 to 100%	pest or weed control at 25 ppm [1]: 50 to 79%; LC90 [5]: 3.1 to 12.5 mg/L (≈ 7.68 to 31 µM)
COC(=O)N(OC)c1ccccc1COc1ccn(-c2ccc(Cl)cc2)n1 [pyraclostrobin]	–	–	–	–	% DC Obs ([7]; 1DP PUCCRT, 0.1 ppm): 8%; % DC Obs ([7]; 3DC PUCCRT, 0.3 ppm): 4%; % DC Obs ([8]; 1DP SEPTTR, 0.3 ppm): 49%; % DC Obs ([8]; 3DC SEPTTR, 0.1 ppm): 14%
Fc1cc(F)c2ncnc(NCCc3ccc(Oc4cc(C(F)(F)F)ccn4)cc3)c2c1F [Compound 31]	80 to 100%	80 to 100%	80 to 100%	80 to 100%	LD50 at 14 days [4]: > 500 mg/kg; LC90 [5]: 50 to 200 mg/L (≈ 108 to 431 µM)
[O-][n+]1ccc(C(F)(F)F)c(Oc2ccc(CCNc3ncnc4c(F)ccc(F)c34)cc2)c1 [Compound 115]	80 to 100%	80 to 100%	80 to 100%	80 to 100%	Percent mortality (Caenorhabditis elegans): 100%
COc1cc(CCNc2ncnc3c(F)cc(F)c(F)c23)ccc1Oc1cc(C(F)(F)F)ccn1 [Compound 34]	80 to 100%	80 to 100%	80 to 100%	80 to 100%	–
COc1ccc(CCNc2ncnc3c(F)ccc(F)c23)c(F)c1 [Compound 72]	–	80 to 100%	80 to 100%	80 to 100%	pest or weed control at 25 ppm [1]: 0 to 49%
Fc1ccc(F)c2c(NCCc3ccc(Oc4cc(Cl)ncn4)cc3)ncnc12 [Compound 127]	0 to 49%	80 to 100%	80 to 100%	80 to 100%	–
Fc1cc(CCNc2ncnc3c(F)ccc(F)c23)ccc1Oc1cc(C(F)(F)F)ccn1 [Compound 49]	80 to 100%	80 to 100%	80 to 100%	80 to 100%	–
Fc1ccc(F)c2c(NCCc3ccc(Oc4cnccc4C(F)(F)F)c(Cl)c3)ncnc12 [Compound 91]	80 to 100%	80 to 100%	80 to 100%	80 to 100%	–
Fc1cc(Oc2ncc(C(F)(F)F)cc2F)ccc1CCNc1ncnc2c(F)ccc(F)c12 [Compound 122]	–	80 to 100%	80 to 100%	50 to 79%	pest or weed control at 25 ppm [1]: 80 to 100%
CC(F)(F)c1cc[n+]([O-])c(Oc2ccc(CCNc3ncnc4c(F)ccc(F)c34)cc2)c1 [Compound 10]	80 to 100%	80 to 100%	80 to 100%	50 to 79%	–
COc1cc(CCNc2ncnc3c(F)ccc(F)c23)ccc1Oc1ccnc(C(F)(F)F)n1 [Compound 113]	–	80 to 100%	80 to 100%	80 to 100%	pest or weed control at 25 ppm [1]: 80 to 100%
CCCOc1cc(CCNc2ncnc3c(F)ccc(F)c23)ccc1Oc1cc(C(F)(F)F)ccn1 [Compound 57]	80 to 100%	80 to 100%	80 to 100%	80 to 100%	–
Fc1ccc([C@]2(Cn3cncn3)O[C@H]2c2ccccc2Cl)cc1 (racemic) [epoxiconazole]	–	–	–	–	% DC Obs ([7]; 1DP PUCCRT, 0.1 ppm): 0%; % DC Obs ([7]; 3DC PUCCRT, 0.1 ppm): 13%; % DC Obs ([8]; 1DP SEPTTR, 0.3 ppm): 36%; % DC Obs ([8]; 3DC SEPTTR, 0.3 ppm): 35%
